Measurements reported in patent publication US11129845B2, “Compositions and methods for the delivery of nucleic acids” (CASE WESTERN RESERVE UNIVERSITY, priority 2014, dated 2021).

Assays:
[1] = Nanoparticle diameter and polydispersity by dynamic light scattering (Malvern Zetasizer); assay type: physicochemical; conditions: for Nanoparticle diameter as measured by dynamic light scattering: siRNA-lipid complexes
Method: The cationic lipid carriers are dissolved in ethanol at a stock concentration of 2.5 mM, while all siRNA is reconstituted in nuclease-free water at a 0.25 μg/μL (18.8 μM) concentration. Nanoparticles are formulated by mixing the carriers with siRNA for a period of 30 min in RNase-free phosphate buffer saline (PBS) at pre-specified N/P ratios (N=number of protonable amines in lipid, P=number of phosphate groups in the siRNA). In preparing the lipoplexes, proper dilutions were made such that the volume ratio of ethanol:water was kept constant at 1:20. Minimizing the amount of ethanol is important because it is effective in dissolving lipids, thus inhibiting particle formation. The diameters (as determined by dynamic light scattering) and zeta potentials of all nanoparticles were analyzed using a Malvern Zetasizer instrument at pH=7.4. siRNA encapsulation efficiency was calculated using a RiboGreen fluorescence-based assay from Invitrogen, designed specifically for detection of free RNA at […] wavelengths of 480 and 520 nm, respectively. Nanoparticles were created with all carriers in the library so that final siRNA concentrations were 1.6 μg/mL. A linear standard curve was utilized to calculate the encapsulation efficiencies from signal intensities measured by a SpectraMax microplate reader (Molecular Devices).

[2] = system: GFP reporter protein; experiment: GFP reporter silencing in CHO-GFP cells (flow cytometry); assay type: cell-based, Chinese hamster; conditions: N/P=4, 48 h post-transfection, 100 nM siRNA
Method: The RNAi induced silencing capabilities of each carrier was investigated in both a CHO-GFP non-cancerous cell line and an HT29-Luc (luciferase) human colon cancer cell line. Approximately 50,000 CHO-GFP cells were seeded into 6 well plates. When 25% confluency was achieved, the growth media were replaced with fresh serum free transfection media containing siRNA nanoparticles, at a dose of 100 nM siRNA. Negative controls included cells that were either treated with naked anti-GFP siRNA or with plain serum-free media. N/P ratios of 4, 6, 8, 10, 12, and 14 were tested for each carrier to determine the optimal nanoparticle formulation. […] After 4 h, the media were removed and replaced with fresh complete growth media, and cells were allowed to grow for another 24, 48, or 72 h post-transfection. At each of these time points, the CHO-GFP cells were rinsed twice with PBS, trypsinized, and fixed with 2% paraformaldehyde. […] Cell-Quest software was used to analyze the results and obtain mean fluorescence intensity (MFI) values.
(§1) The RNAi capabilities of each carrier were investigated by analyzing the silencing of a luciferase (Luc) reporter in HT29 cancer cells after anti-Luc siRNA therapy. […] Luciferase expression was determined using a Spectra Max luminometer upon the addition of a light-inducing substrate to the collected protein. […]

[3] = system: CHO-GFP cells; assay type: cell-based, Chinese hamster
Method: Cytotoxicity of the carriers was investigated using an MTT colorimetric assay measuring cellular metabolic activity (Invitrogen). The transfection procedure was identical to that presented for the reporter knockdown studies above, except for the fact that 96 well plates were utilized instead, and seeded with 10,000 cells per well. After transfection, the cells were allowed to grow for an additional 48 h. At that point, they were incubated with MTT for 4 h, followed by an additional 4 hour incubation with an SDS-HCl solution to dissolve any insoluble formazan crystals formed by the reduction of MTT by NAD(P)H-dependent enzymes in the cells. The absorbance of each sample was measured at 570 nm using a SpectraMax microplate reader. Cellular viability was calculated by averaging the signal intensities over three replicates and then normalizing the results relative to the negative control data.
as §1, with “therapy. To perform this study, we seeded HT29-Luc cells in 12 well plates at a density of 20,000 cells per well.” for “therapy.”

[4] = Agarose gel retardation (siRNA loading); assay type: physicochemical
Method: The ability of ECO to complex and condense siRNA was assessed by gel electrophoresis. […] The gel was submerged in 0.5×Tris/Borate/EDTA (TBE) buffer and run at 100 V for 25 minutes. Free siRNA was run as the control. SiRNA bands were visualized using an AlphaImager ultraviolet imaging system (Biosciences). […] Following incubation, samples were loaded onto a 1% agarose gel containing ethidium bromide and run in the same manner as described. […] At each intermittent time point, aliquots were taken and stored at −80° C. After the final aliquot was taken at 24 hours, samples were incubated for 30 minutes with heparin at a heparin/siRNA (w/w) ratio of 5 to release the complexed siRNA cargo and each sample was loaded on the 1% agarose gel and run as described above. Free siRNA was also incubated in 50% serum for 0.5, 1, 6, or 24 hours and stored and run on the gel in a similar manner.

Compound: CCCCCCCC/C=C\CCCCCCCC(=O)N[C@@H](CS)C(=O)NCCNC(=O)CCN(CCN)CCC(=O)NCCNC(=O)[C@H](CS)NC(=O)CCCCCCC/C=C\CCCCCCCC [ECO, (1-aminoethyl)iminobis[N-(oleicylcysteinyl-1-amino-ethyl)propionamide]]
- Polydispersity of siRNA-lipid complexes ([1]; N/P = 2): 0.245
- Polydispersity of siRNA-lipid complexes ([1]; N/P = 5): 0.200
- Polydispersity of siRNA-lipid complexes ([1]; N/P = 8): 0.157
- Polydispersity of siRNA-lipid complexes ([1]; N/P = 10): 0.136
- Polydispersity of siRNA-lipid complexes ([1]; N/P = 15): 0.005
- Nanoparticle diameter as measured by dynamic light scattering ([1]; N/P = 2): 468 ± 43 nm
- Nanoparticle diameter as measured by dynamic light scattering ([1]; N/P = 5): 448 ± 23 nm
- Nanoparticle diameter as measured by dynamic light scattering ([1]; N/P = 8): 59 ± 11 nm
- Nanoparticle diameter as measured by dynamic light scattering ([1]; N/P = 10): 78 ± 12 nm
- Nanoparticle diameter as measured by dynamic light scattering ([1]; N/P = 15): 42 ± 9 nm
- relative GFP reporter expression [2]: 61.0±5.05%
- cell viability (MTT) [3]: greater than 85%
- N/P ratio at which complexed siRNA was completely prevented from migrating through the gel [4]: ≥ 14
- N/P ratio at which no siRNA signal was observed in the loading well [4]: ≥ 18
